Data: US4049660A, “N-substituted derivatives of 4 (N-piperazinylmethyl) spiro dibenzocycloheptadi- (or tri-) ene-5, 2-dioxolane (1,3) their method of preparation and their application in therapeutics” (Delalande S.A., priority 1971, dated 1977)
Like-named read-outs stand apart in the source and are kept apart here.

Legend:
[1] = test system: cough caused by stimulation of the upper laryngeal nerve; test: Anti-cough: cough caused by stimulation of the upper laryngeal nerve in an anaesthetized cat; assay type: in vivo; settings: 1 mg/kg/IV
[2] = test system: isolated duodenum of a rat (barium chloride); test: Spasmolytic: contraction by barium chloride of isolated duodenum of a rat; settings: for Spasmolytic activity: relative to papaverine as the standard
Protocol: Compounds of formula I, introduced in the survival medium, are capable of opposing the contacting action of barium chloride on the isolated duodenum of a rat. This activity is determined either by taking papaverine as the standard or by calculating the DE50 of the compound tested.

[3] = test system: painful stretchings following intraperitoneal injection of acetic acid; test: Analgesic: painful stretchings following intraperitoneal acetic acid in mouse; assay type: in vivo; settings: 100 mg/kg/PO, read-out: Percentage reduction in the number of painful stretchings
From the text: The compounds of formula (I) administered orally to a mouse are capable of reducing the number of painful stretchings following the intraperitoneal injection of acetic acid.

[4] = test system: arterial pressure; test: Hypotensive: arterial pressure of anaesthetized rat; assay type: in vivo
From the text: Administered intravenously to an anaesthetized rat, the compounds of formula (I) cause a lowering of arterial pressure.

[5] = test system: bronchoconstrictions provoked by serotonine; test: Antiserotonine: bronchoconstrictions provoked by intravenous serotonine in guinea pigs (Konzett and Rossler test); assay type: in vivo; settings: Cavia porcellus, serotonine bronchoconstriction, read-out: Test of Konzett and Rossler DE50
From the text: (§1) For purposes of comparison, compounds of the formula (I) were compared, as to their antiserotonine properties, with a respresentative sampling of compounds disclosed in U.S. Pat. No. 3,726,900. The comparison compounds tested have the formula [drawing 23]

[6] = test system: isolated tied uterus (serotonine); test: Antiserotonine: contractions of the isolated tied uterus provoked by serotonine; settings: in vitro
From the text: as §1

[7] = Acute toxicity / mortality, oral, mice; assay type: in vivo; settings: mouse, in vivo; for mortality: read-out: Percentage of mortality with mice; for LD50: oral
From the text: As is shown by the preceding results and by those given in Table XIV below, the difference between pharmacologically active doses and lethal doses is sufficiently great to allow the use of compounds of formula (I) in therapeutics.

[8] = test system: ptosis caused by reserpine; test: Anti-depressive: antagonism against ptosis caused by intravenous reserpine; assay type: in vivo; settings: for ED50: po, read-out: Antagonism against ptosis caused by reserpine (DE50)
Protocol: (§2) In this regard, the compounds of formula I differ unexpectedly from the compounds of U.S. Pat. No. 3,726,900, as shown by comparative testing.
(§3) The anti-depressive properties of additional analog compounds were tested by the same tests. In these tests, the comparison compounds had the formula [drawing 28] The specific compounds tested and the test results are indicated in Table XIII.

[9] = test system: lethal effect of yohimbine; test: Anti-depressive: potentialization of lethal effect of yohimbine; assay type: in vivo
Protocol: as §2, §3

[10] = test system: ventricular fibrillations caused by inhaling chloroform; test: Antiarythmic: ventricular fibrillations caused by inhaling chloroform in mouse; assay type: in vivo; settings: ip, intraperitoneal, read-out: Antagonism to fibrillations caused by chloroform with a mouse, DE50
From the text: Administered intraperitoneally, the compounds of formula (I) are able to protect the mouse against ventricular fibrillations caused by inhaling chloroform.

[11] = test system: isolated ileum of a guinea pig (histamine); test: Antihistamine: contraction by histamine of isolated ileum of a guinea pig
Protocol: The compounds of formula (I) introduced in the survival medium are able to oppose the contracting action of histamine on the isolated ileum of a guinea pig. This activity is calculated by the DE50 of the tested compounds.

[12] = test system: urinary elimination; test: Diuretic: volume of urine in mouse; assay type: in vivo; settings: 4 hours, versus controls, read-out: Percentage increase in urinary elimination
Protocol: The compounds of formula (I) administered orally to a mouse simultaneously with a volume of 1 ml of sodium chloride isotonic solute per 25 g of body weight are able to cause an increase of the volume of urine given compared with controls, this volume being measured for the 4 hours following administration.

[13] = test system: isolated fundus of rats (serotonine); test: Antiserotonine: contractions of the isolated fundus of rats provoked by serotonine; settings: in vitro
From the text: as §1

[14] = mice, Table XI, read-out: LD50 (mice)
[15] = at 100 mg/kg/PO, result in words
[16] = at 50 mg/kg/PO, result in words

Row | SMILES | Spasmolytic activity [2] | inhibition in vivo at 100 mg/kg [3] | ED50 [5] | mortality ([7]; 1200 mg/kg/PO) | LD50 [7, 14] | Antagonism against ptosis caused by reserpine ([8]; at 100 mg/kg/PO) | Potentialization of lethal effect of yohimbine [9, 15] | ED50 [10] | Antihistamine activity DE50 [11] | LD50 ([7]; Table XIII, read-out: LD50) | further results
1 | CC(C)NC(=O)CN1CCN(CC2COC3(O2)c2ccccc2CCc2ccccc23)CC1 (stereo not drawn) [compound 70347] | 1.5 × papaverine | 70% | 0.5 mg/kg | ~50% | 1200 mg/kg | Inactive | Inactive | – | – | – | Reduction of cough, duration [1]: 20 mm; Reduction of cough, intensity [1]: 80%; Reduction of arterial pressure, duration ([4]; 2 mg/kg/IV): > 30 mm; Reduction of arterial pressure, intensity ([4]; 2 mg/kg/IV): 50%; Antagonisms against contractions of tied uterus, DE50 [6]: 0.02 µg/mL
2 | O=C(CN1CCN(CC2COC3(O2)c2ccccc2C=Cc2ccccc23)CC1)N1CCCCCC1 (stereo not drawn) [compound 72176] | – | – | – | – | – | – | – | 100 mg/kg | 0.5 µg/mL | – | DE50 (spasmolytic) [2]: 3.50 µg/mL; mortality ([7]; 3400 mg/kg/PO): ~50%
3 | C1=Cc2ccccc2C2(OCC(CN3CCCCC3)O2)c2ccccc21 (stereo not drawn) [compound 70315, reference compound] | – | – | 1.4 mg/kg | – | 700 mg/kg | – | – | – | – | – | Antagonism against ptosis caused by reserpine ([8]; at 75 mg/kg/PO): 45%
4 | CC(C)NC(=O)CN1CCN(CC2COC3(O2)c2ccccc2C=Cc2ccccc23)CC1 (stereo not drawn) [compound 72134] | – | – | – | ~50% | 1200 mg/kg | – | – | 65 mg/kg | 1 µg/mL | – | change in vivo at 50 mg/kg ([12]; 50 mg/kg/PO): 55%; Antagonism against ptosis caused by reserpine [8, 16]: Inactive
5 | CNCC1COC2(O1)c1ccccc1CCc1ccccc12 (stereo not drawn) [R = CH3 (--Z-- = --CH2 --CH2 --), reference compound] | – | – | – | – | – | – | – | – | – | 850 mg/kg | ED50 ([8]; Table XIII): 60 mg/kg
6 | CCOC(=O)CN1CCN(CC2COC3(O2)c2ccccc2CCc2ccccc23)CC1 (stereo not drawn) [compound 70365] | 3 × papaverine | 75% | 0.6 mg/kg | – | 1250 mg/kg | Inactive | Inactive | – | – | – | mortality ([7]; 1250 mg/kg/PO): ~50%
7 | O=C(CN1CCN(CC2COC3(O2)c2ccccc2CCc2ccccc23)CC1)N1CCCC1 (stereo not drawn) [compound 70339] | 1 × papaverine | 75% | 0.1 mg/kg | ~50% | 1200 mg/kg | Inactive | Inactive | – | – | – | Reduction of cough, duration [1]: 20 mm; Reduction of cough, intensity [1]: 100%; Reduction of arterial pressure, duration ([4]; 1 mg/kg/IV): > 30 mm; Reduction of arterial pressure, intensity ([4]; 1 mg/kg/IV): 80%; Antagonisms against contractions of tied uterus, DE50 [6]: 0.002 µg/mL; Antagonisms against contractions of fundus of rat, DE50 [13]: 0.67 µg/mL
8 | CC(C)NCC1COC2(O1)c1ccccc1C=Cc1ccccc12 (stereo not drawn) [R = C3 H7 (i) (--Z-- = --CH = CH--), reference compound] | – | – | – | – | – | – | – | – | – | 550 mg/kg | Antagonism against ptosis caused by reserpine ([8]; at 50 mg/kg/PO, Table XIII): 20%
9 | CCNCC1COC2(O1)c1ccccc1C=Cc1ccccc12 (stereo not drawn) [R = C2 H5 (--Z-- = --CH = CH--), reference compound] | – | – | – | – | – | – | – | – | – | 375 mg/kg | ED50 ([8]; Table XIII): 70 mg/kg; Potentialization of lethal effect of yohimbine ([9]; at 50 mg/kg/PO, Table XIII): 60%
10 | CNC(=O)CN1CCN(CC2COC3(O2)c2ccccc2C=Cc2ccccc23)CC1 (stereo not drawn) [compound 72188] | – | 60% | 0.25 mg/kg | – | 1100 mg/kg | – | – | 38 mg/kg | 1 µg/mL | – | change in vivo at 25 mg/kg ([12]; 25 mg/kg/PO): 40%; mortality ([7]; 1100 mg/kg/PO): ~50%; Antagonism against ptosis caused by reserpine [8, 16]: Inactive
